In PubChem BioAssay AID608 (Sanford-Burnham Center for Chemical Genomics, 2007):
The source made the active and inactive calls. How the calls were made is not given here.

molecular target: Peptidyl-prolyl cis-trans isomerase FKBP1A (Homo sapiens) (UniProt P62942); experiment: FKBP12 binders, biophysical, NMR detection (AID 608); details: NMR binding, purified FKBP12
Sequence (P62942 whole entry, looked up): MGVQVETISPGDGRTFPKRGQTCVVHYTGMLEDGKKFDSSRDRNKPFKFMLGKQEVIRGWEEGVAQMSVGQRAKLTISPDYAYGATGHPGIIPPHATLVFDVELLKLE

| SMILES | Kd |
| --- | --- |
| Cc1occc1C(=O)N1CCC2(CC1)OCCO2 | > 4 mM (inactive) |
| Nc1ncnc(NCCOCCO)c1[N+](=O)[O-] | > 4 mM (inactive) |
| CC1(C)N=C2C(=[N+]1[O-])CCC/C2=N\O | > 4 mM (inactive) |
| COC(=O)Nc1nnc(-c2ccncc2)s1 | > 4 mM (inactive) |
| COC(=O)c1ccc(N2CCOCC2)nc1 | > 4 mM (inactive) |
| CC1(C)Cc2nc3[nH]c(=S)[nH]c(=O)c3cc2CO1 | > 4 mM (inactive) |
| COC1=CC(=O)C(O)=C/C1=C\C=C\c1ccccc1 | > 4 mM (inactive) |
| CSc1ccccc1NC(=O)c1c(C)noc1C | > 4 mM (inactive) |
| O=C1C2C3C=CC(O3)C2C(=O)N1c1ccccc1 (centres undefined) | > 4 mM (inactive) |
| Cc1ccc2cc(N)ccc2n1 | > 4 mM (inactive) |
| C[C@]12CCC(=O)C=C1CCC1C2C(=O)C[C@@]2(C)C1CC[C@]2(O)C(=O)CO (some centres undefined) | > 4 mM (inactive) |
| COc1ccc(-c2nnsc2N)cc1 | > 4 mM (inactive) |
| Cn1cnc2c1c(=O)[nH]c(=O)n2C | > 4 mM (inactive) |
| Nc1nc(O)c(C2=c3cc(Cl)ccc3=NC2=O)s1 | > 4 mM (inactive) |
| Nc1ccc2nsnc2c1 | > 4 mM (inactive) |
| Cn1nc(C(=O)NC2CCCCC2)c2ccccc2c1=O | > 4 mM (inactive) |
| CC(C)c1c(O)c(-c2cc3c(c(C(C)C)c2O)CCC2C(C)(C)CCC[C@]32C)cc2c1CCC1C(C)(C)CCC[C@]21C (some centres undefined) | > 4 mM (inactive) |
| CNC(C)[C@H](O)c1ccccc1 (some centres undefined) | > 4 mM (inactive) |
| CC(=O)NC(C)(C)C1CC=C(C)/C(=N\O)C1 (centres undefined) | > 4 mM (inactive) |
| NCc1ccc2occc2c1 | > 4 mM (inactive) |

| SMILES | Kd |
| --- | --- |
| Nc1ccc2c(c1)CCCC2=O | > 4 mM (inactive) |
| Cc1cc(C)n(CCCC(=O)O)n1 | > 4 mM (inactive) |
| CCC(CO)NC(=O)c1snnc1C (centres undefined) | > 4 mM (inactive) |
| COc1cccc(OCC(=O)N2CCOCC2)c1 | inactive |
| O=C1C2C3CCC(O3)C2C(=O)N1c1ccccc1 (centres undefined) | > 4 mM (inactive) |
| CC12CCC(O)CC1CCC1C2[C@H](O)CC2(C)C(C3=CC(=O)OC3)CCC12O (some centres undefined) | > 4 mM (inactive) |
| Cc1ccccc1NC(=O)N1CCOCC1 | > 4 mM (inactive) |
| CN1CCCn2c1nc1c2c(=O)[nH]c(=O)n1C | > 4 mM (inactive) |
| CC(C)c1ccc(SCC(=O)O)cc1 | > 4 mM (inactive) |
| CC(=O)N1C(=S)NC(=O)/C1=C\c1cccnc1 | > 4 mM (inactive) |
| Cc1ccc(C2NS(=O)(=O)N=C2N)cc1 (centres undefined) | > 4 mM (inactive) |
| CCOC(=O)c1cc(C)[nH]n1 | > 4 mM (inactive) |
| C=C1CCC2C(CC2(C)C)C(=C)CC/C1=N/O (centres undefined) | > 4 mM (inactive) |
| CCc1c(C)n([O-])c2c([n+]1=O)CCC2 | > 4 mM (inactive) |
| Cc1ccc(OCC(=O)N2CC(C)OC(C)C2)cc1C (centres undefined) | > 4 mM (inactive) |
| COc1ccc(N2C(=N)C(C)(C)NC2=O)cc1 | > 4 mM (inactive) |
| Cn1cc(Cl)c(C(=O)Nc2ccc(F)cc2F)n1 | > 4 mM (inactive) |
| Nc1cccc(S(N)(=O)=O)c1 | > 4 mM (inactive) |
| Cc1ccc(C)n1/N=C1\NC(=O)CS1 | > 4 mM (inactive) |
| CCSc1nc2ccccc2n1CC(N)=O | > 4 mM (inactive) |

| SMILES | Kd |
| --- | --- |
| Cc1occc1C(=O)Nc1nnc(-c2ccncc2)s1 | > 4 mM (inactive) |
| O=C(Oc1ccc2c(c1)OCC2=O)c1ccccc1 | > 4 mM (inactive) |
| Cc1c(-c2ccccc2)[n+](=O)c(-c2ccco2)c(C)n1[O-] | > 4 mM (inactive) |
| Nc1cc(C(=O)N2CCCC2)cc(C(=O)N2CCCC2)c1 | > 4 mM (inactive) |
| Cc1nc(N2CCOCC2)[nH]c(=O)c1C | > 4 mM (inactive) |
| COc1ccc(-c2cc(=O)c3c(OC(C)=O)cc(OC(C)=O)cc3o2)cc1 | > 4 mM (inactive) |
| Cc1cc(=O)n(C(N)=S)[nH]1 | > 4 mM (inactive) |
| CCCc1ncc(C(O)c2cccc3ccccc23)n1C (centres undefined) | > 4 mM (inactive) |
| COC(=O)C1=C(C)N(c2cccc(C(C)=O)c2)C(=O)C1 | > 4 mM (inactive) |
| O=C(Nn1cnnc1)c1cc2c(s1)CCCC2 | > 4 mM (inactive) |
| O=C(Nc1ccon1)c1csc2ccccc12 | > 4 mM (inactive) |
| CSc1ccc2nnc(-c3cccnc3)n2n1 | > 4 mM (inactive) |
| COC(=O)C1COCCN1C(=O)CS(=O)(=O)c1ccc(C(C)C)cc1 (centres undefined) | inactive |
| Cc1ccc(NC(=O)N2CCC(C(N)=O)CC2)cc1 | > 4 mM (inactive) |
| Cc1cc(N(CN2CCCC2=O)C(=O)c2ccccc2)no1 | > 4 mM (inactive) |
| CC(=O)OC1CCC2(C)C3CC(=O)C4(C)C(CC5OC6(CCC(C)CO6)[C@@H](C)C54)C3CC[C@H]2C1 (some centres undefined) | > 4 mM (inactive) |
| Nc1ncnc(NCc2cccnc2)c1[N+](=O)[O-] | > 4 mM (inactive) |
| CCC1C(=O)OCC1Cc1cncn1C (centres undefined) | > 4 mM (inactive) |
| O=C(Nc1ccccc1F)c1ccncc1 | > 4 mM (inactive) |
